Tests used:
[1] = biological target: T1, HCV NS3-4A Protease Genotype 1a (Hepatitis C virus genotype 1a, UniProt P27958); test: HCV protease assay, recombinant NS3-4A genotype 1a; type: biochemical; details: mean ± SD, 3 experiments
T1 construct: recombinant HCV NS3-4A proteases
Method: The compounds were tested at a variety of concentrations in assay buffer containing a final DMSO concentration of 5%. Reactions were allowed to proceed for 60 min at room temperature and fluorescence measurements were recorded with a Tecan Infinity Spectrofluorimeter. The IC50 values were determined from the percent inhibition versus concentration data using a sigmoidal non-linear regression analysis based on four parameters with Tecan Magellan software.
Compound 52 was tested against genotypes 1a, 1b, 2a, 3a, and 4a of recombinant HCV NS3-4A proteases, along with other cellular proteases.

[2] = test system: Replicon cells (genotype 1b); test: Long-term treatment assay in replicon cells; type: cell-based, HCV
Method: Compound 52 was tested in a long-term treatment assay. Replicon cells (genotype 1b) were treated with the compound, without G418, for 14 days, and the level of replicon RNA was measured at multiple time points. At the end of the 14-day treatment, cells were cultured in the absence of the compound, but with or without G418, in 10 cm dishes for 21 days. Surviving cell colonies were then stained with crystal violet and counted.

[3] = Cytotoxicity in parallel, colorimetric proliferation assay, 1b replicon cells; type: cell-based; details: human, replicon cells (genotype 1b)
[4] = Cytotoxicity in parallel, colorimetric proliferation assay, 1a replicon cells; type: cell-based; details: human, replicon cells (genotype 1a)
[5] = test system: D-1a cell line (genotype 1a replicon selected with 25 nM, D168A); test: Extent of resistance after selection, D-1a; type: cell-based, HCV; details: selecting conc. 25 nM
Method: Replicon cells (genotype 1a or 1b) were treated with various concentrations of compound 52 in the presence of G418. Treatment-emergent genotypic changes were identified by population sequencing of NS3 (both protease and helicase regions). The activity of compound 52 and other compounds was evaluated by NS5A western blot after selection or luciferase assay during and after selection.

[6] = test system: genotype 1b luciferase-replicon NS3 A156S
Method: (§1) The activity of compound 52 was evaluated against replicons bearing single protease inhibitor-resistance mutations as compared to its activity against the wild-type replicon. Mutations were introduced into a genotype 1b luciferase-replicon by site-directed mutagenesis. Compound activity was measured in cells transiently transfected with in vitro transcribed wild-type or mutant luciferase-replicon RNA by luciferase assay after 4-day treatment. Replication capacity was determined in untreated transfected cells by comparing the luciferase activity at 4 hrs and 4 days post-transfection.

[7] = test system: genotype 1b luciferase-replicon NS3 T54A
Method: as §1

in vitro = type: cell-based; details: 48 hrs, intracellular ATP
Method: Freshly isolated hepatocytes were incubated with various concentrations of […] for 48 hrs. Intracellular ATP content was measured (CellTiter-Glo luminescent cell viability assay) to determine cell cytotoxicity (CC50).

human CYP450 2C9 = biological target: T2, human CYP450 2C9 (Homo sapiens, UniProt P11712); test: CYP450 inhibition assay, 2C9; type: in vitro ADME
T2 construct: purchased BD Bioscience
Method: Compound 52 was incubated with human CYP450 cDNA-expressed isoenzymes according to the protocol (BD Bioscience). For CYP2C9, a luminogenic substrate was used with the P450-Glo™ kit. In addition, the effect of the compound on CYP2C9-mediated diclofenac metabolism was measured by LC-UV. The potential inhibitory effect of the compound on human UGT1A1 was examined using human liver microsomes and bilirubin as substrate. The metabolites (mono- and di-glucuronidated bilirubin) were measured by LC-UV.

[8] = test system: cardiovascular and respiratory systems of monkeys; type: in vivo, cynomolgus monkey; details: oral doses up to 250 mg/kg
Description: (§2) One in vitro GLP safety pharmacology study evaluated the effects of compound 52 on hERG channel currents in voltage-clamped human embryonic kidney cells (HEK293) stably expressing the human ether-à-go-go-related gene (hERG) channel. Four in vivo GLP safety pharmacology studies evaluated the potential effects of the compound on the cardiovascular and respiratory systems in the cynomolgus monkey and on the central nervous, renal, and gastrointestinal systems in the CD-1 mouse at single oral doses up to 250 mg/kg of compound 52.

[9] = test system: central nervous, renal, and gastrointestinal systems of mice; design: species or system CD-1 mouse; details: mouse, in vivo
Description: as §2

[10] = test system: S. typhimurium and E. coli; test: Bacterial mutation test; type: cell-based; details: up to 5,000 μg/plate, with and without S9
Method: (§3) The potential for compound 52 to induce mutations in a bacterial system (S. typhimurium and E. coli—at concentrations up to 5,000 μg/plate), to induce chromosomal aberrations in cultures of human peripheral blood lymphocytes (at concentrations up to 84 μg/mL), and to induce clastogenic and/or aneugenic activity in CD-1 mice (at oral doses up to 2,000 mg/kg) was evaluated. The two in vitro studies were performed with and without the addition of a mammalian metabolic activation system (rat liver S9 subcellular fraction).

[11] = test system: human peripheral blood lymphocytes; type: cell-based; details: up to 84 μg/mL, with and without S9
Method: as §3

mice = details: mouse, in vivo
Method: (§4) Daily oral doses of compound 52 (up to 250 mg/kg/day) in PEG 400 were administered to both mice and monkeys for 28 consecutive days. Toxicity was evaluated based on mortality, clinical observations, body weights, food consumption, ophthalmological examination, hematology and serum chemistry, organ weights, gross and microscopic examinations. ECG, coagulation and urinalysis were also performed in the monkey study.

monkeys = details: oral doses up to 250 mg/kg
Method: as §4

clinical = details: human, in vivo; for AUC(0-inf): AUC0-∞
[12] = 50 mg, single dose 50 mg, human volunteers
[13] = 100 mg, single dose 100 mg, human volunteers
[14] = 200 mg, single dose 200 mg, HCV patients, N = 2
[15] = 200 mg, single dose 200 mg, human volunteers
[16] = 400 mg, single dose 400 mg Fasted, human volunteers
[17] = 400 mg, single dose 400 mg, human volunteers

COc1ccc2c(O[C@H]3CCN4C(=O)N(C)CCCC/C=C\[C@@H]5C[C@@]5(C(=O)NS(=O)(=O)C5(C)CC5)NC(=O)[C@@H]4C3)cc(-c3nc(C(F)(F)F)cs3)nc2c1C [Compound 52, 1-methyl-cyclopropanesulfonic acid{(Z)-(1S,4R,6S,18S)-18-[7-methoxy-8-methyl-2-(4-trifluoromethyl-thiazol-2-yl)-quinolin-4-yloxy]-13-methyl-2,14-dioxo-3,13,15-triaza-tricyclo[13.4.0.0*4,6*]nonadec-7-ene-4-carbonyl}amide]
IC50 [1]: 1.1 ± 0.1 nM
colonies remained on average ([2]; 14-day treatment with 10 nM, then cultured with G418 for 21 days): 6 colonies
mean maximal RNA reduction ([2]; replicon RNA, after 10 days of treatment with 10 nM, without G418): 3.7 log10
CC50 at 5 days [3]: 25.2 ± 5.3 µM
CC50 at 5 days [4]: > 77 µM
Fold-Change [5]: >2750
Fold-Change [6]: 0.5 ± 0.1
Fold-Change [7]: 1.4 ± 0.2
CC50 (in vitro; fresh human hepatocytes): > 10 µM
CC50 (in vitro; fresh monkey hepatocytes): > 10 µM
CC50 (in vitro; fresh mouse hepatocytes): > 10 µM
CC50 (in vitro; fresh rat hepatocytes): > 10 µM
IC50 (human CYP450 2C9): ≥ 10 µM
effects on the cardiovascular and respiratory systems [8]: no effects
effects on the central nervous system, renal function, or gastrointestinal motility [9]: no effects
genotoxicity, bacterial mutation test [10]: no genotoxicity
genotoxicity, human lymphocyte chromosomal aberration test [11]: no genotoxicity
tolerability in 4-week GLP toxicology study (mice): well tolerated
tolerability in 4-week GLP toxicology study (monkeys): well tolerated
AUC(0-inf) (clinical; [12]): 2020 ± 744 ng·h/mL
Cmax (clinical; [12]): 346 ± 87 ng/mL
half-life (clinical; 50 mg, T1/2, single dose 50 mg, human volunteers): 780 ± 360 min
Tmax (clinical; [12]): 3 h
AUC(0-inf) (clinical; [13]): 3540 ± 1010 ng·h/mL
Cmax (clinical; [13]): 467 ± 72 ng/mL
half-life (clinical; 100 mg, T1/2, single dose 100 mg, human volunteers): 1440 ± 420 min
Tmax (clinical; [13]): 3 h
AUC(0-inf) (clinical; [14]): 13900 ng·h/mL
AUC(0-inf) (clinical; [15]): 7240 ± 2930 ng·h/mL
Cmax (clinical; [14]): 1060 ng/mL
Cmax (clinical; [15]): 982 ± 463 ng/mL
half-life (clinical; 200 mg, T1/2, single dose 200 mg, HCV patients, N = 2): 1920 min
half-life (clinical; 200 mg, T1/2, single dose 200 mg, human volunteers): 1560 ± 420 min
Tmax (clinical; [14]): 3.5 h
Tmax (clinical; [15]): 3 h
AUC(0-inf) (clinical; 400 mg): 9460 ± 2330 ng·h/mL
AUC(0-inf) (clinical; [16]): 4190 ± 1590 ng·h/mL
Cmax (clinical; [16]): 368 ± 89 ng/mL
Cmax (clinical; [17]): 1120 ± 505 ng/mL
half-life (clinical; 400 mg, T1/2, single dose 400 mg Fasted, human volunteers): 900 ± 480 min
half-life (clinical; 400 mg, T1/2, single dose 400 mg, human volunteers): 1500 ± 420 min
Tmax (clinical; [16]): 3 h
Tmax (clinical; [17]): 3 h

From patent US8993595B2, “Macrocyclic serine protease inhibitors” (priority 2009, dated 2015)
